Source: publication PMC5333991 (Journal of biomolecular screening, 2009)

Tests used:
CYP2C9 = CYP2C9 (Homo sapiens, UniProt P11712); experiment: in vitro
CYP3A4 = CYP3A4 (Homo sapiens, UniProt P08684); experiment: fluorogenic CYP450 inhibition assay; type: biochemical
CYP3A4, sequence (P08684 2-503): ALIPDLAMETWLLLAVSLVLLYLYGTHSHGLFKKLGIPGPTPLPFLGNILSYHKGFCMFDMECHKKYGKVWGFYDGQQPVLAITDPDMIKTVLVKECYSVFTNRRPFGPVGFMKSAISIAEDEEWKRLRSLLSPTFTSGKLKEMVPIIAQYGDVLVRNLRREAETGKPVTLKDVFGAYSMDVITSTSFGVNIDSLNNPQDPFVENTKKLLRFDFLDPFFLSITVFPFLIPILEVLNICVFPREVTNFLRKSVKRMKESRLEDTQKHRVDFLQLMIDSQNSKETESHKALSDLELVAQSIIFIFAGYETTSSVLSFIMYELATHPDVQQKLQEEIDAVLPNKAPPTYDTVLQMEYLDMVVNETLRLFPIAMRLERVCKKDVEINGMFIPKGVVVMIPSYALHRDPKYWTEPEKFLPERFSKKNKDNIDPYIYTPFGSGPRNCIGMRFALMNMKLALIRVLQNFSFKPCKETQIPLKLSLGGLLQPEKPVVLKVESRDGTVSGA
CYP3A4, sequence (P16435 2-677 partner): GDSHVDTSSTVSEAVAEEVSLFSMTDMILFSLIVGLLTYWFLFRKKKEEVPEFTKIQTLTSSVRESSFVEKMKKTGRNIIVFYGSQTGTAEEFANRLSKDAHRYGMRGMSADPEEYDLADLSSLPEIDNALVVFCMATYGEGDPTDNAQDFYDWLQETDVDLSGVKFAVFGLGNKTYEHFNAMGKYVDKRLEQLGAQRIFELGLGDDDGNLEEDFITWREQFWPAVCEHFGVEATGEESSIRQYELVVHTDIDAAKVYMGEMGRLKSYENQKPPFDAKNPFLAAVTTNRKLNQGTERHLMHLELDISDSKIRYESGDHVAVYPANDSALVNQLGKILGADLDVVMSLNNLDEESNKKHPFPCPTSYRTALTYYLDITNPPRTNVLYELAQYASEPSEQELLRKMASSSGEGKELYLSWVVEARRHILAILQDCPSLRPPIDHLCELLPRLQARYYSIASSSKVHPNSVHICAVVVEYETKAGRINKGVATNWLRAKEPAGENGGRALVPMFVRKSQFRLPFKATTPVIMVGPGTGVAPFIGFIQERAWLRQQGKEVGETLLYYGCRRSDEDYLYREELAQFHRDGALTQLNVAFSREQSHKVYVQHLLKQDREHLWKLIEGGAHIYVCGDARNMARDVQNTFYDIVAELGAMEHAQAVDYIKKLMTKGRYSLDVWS

CYP2C9, sequence (P11712 whole entry): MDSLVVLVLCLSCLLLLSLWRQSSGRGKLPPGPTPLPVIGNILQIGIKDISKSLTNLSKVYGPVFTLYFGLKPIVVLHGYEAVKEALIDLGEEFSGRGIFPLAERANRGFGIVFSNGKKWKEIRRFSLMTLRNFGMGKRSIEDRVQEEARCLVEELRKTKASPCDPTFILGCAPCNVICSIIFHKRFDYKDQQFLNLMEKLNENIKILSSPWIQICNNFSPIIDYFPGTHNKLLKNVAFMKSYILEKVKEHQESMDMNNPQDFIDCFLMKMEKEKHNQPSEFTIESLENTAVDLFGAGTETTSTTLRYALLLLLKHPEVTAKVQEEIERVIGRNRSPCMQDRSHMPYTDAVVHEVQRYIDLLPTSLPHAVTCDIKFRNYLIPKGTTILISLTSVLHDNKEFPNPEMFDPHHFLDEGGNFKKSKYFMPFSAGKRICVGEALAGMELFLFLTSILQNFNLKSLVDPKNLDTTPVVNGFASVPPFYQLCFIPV
CYP2C9, sequence (P16435 2-677 partner): as the sequence (P16435 2-677 partner) above

Structure (SMILES)	activity at 0.25 µM (CYP2C9) [%]	activity at 0.1 µM (CYP3A4) [%]
Nc1ccc(S(=O)(=O)Nc2ccnn2-c2ccccc2)cc1 [sulfaphenazole]	~50	–
CC(=O)N1CCN(c2ccc(OC[C@H]3CO[C@](Cn4ccnc4)(c4ccc(Cl)cc4Cl)O3)cc2)CC1 (relative stereo) [ketoconazole]	–	< 40
